Results taken from PubChem BioAssay (NCI).
Values joined by “and” are separate entries in the source; they are usually repeats but may differ in a detail not shown here. Equal entries are not always repeated.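 Five compound concentrations were applied to cells in 96-well plates for 48 hours; endpoints were derived by simple linear interpolation of the resulting dose-response curve. Abbreviation: GI50, concentration required for 50% inhibition of growth. The concentration for full growth arrest is given as TGI.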

Columns and labels:
Assay in all cases: DTP human tumour cell line panel, 48 h
[1] = tested on: CCRF-CEM leukemia
[2] = tested on: EKVX NSCLC
[3] = tested on: NCI-H522 lung
[4] = tested on: OVCAR-4 ovarian
[5] = tested on: SF-295 CNS
[6] = tested on: SN12C renal
[7] = tested on: SR leukemia
[8] = tested on: BT-549 breast
[9] = tested on: HS 578T breast
[10] = tested on: MDA-MB-231 breast

Structure (SMILES)	TGI [1]	TGI [2]	TGI [3]	TGI [4]	TGI [5]	TGI [6]	TGI [7]	GI50 [8]	TGI [8]	GI50 [1]	GI50 [2]	GI50 [9]	TGI [9]	GI50 [10]	TGI [10]	GI50 [4]	GI50 [5]	GI50 [6]	GI50 [3]	GI50 [7]
COc1ccc2ccc3c(c2c1)CN1CCc2cc(OC)c(OC)cc2C1C3 (configuration not stated)	> 100 µM	> 100 µM	> 100 µM	> 100 µM	> 100 µM	> 100 µM	> 100 µM	–	–	–	–	–	–	–	–	–	–	–	–	–
Cc1ccc(CS/C(=C\c2ccc([N+](=O)[O-])cc2)C(=O)c2ccc(F)cc2)cc1	> 100 µM	24 µM	–	13.3 µM	6.48 µM	9.48 µM	–	1.92 µM	4.38 µM	2.23 µM	4.72 µM	2.35 µM	6.34 µM	2.42 µM	6.08 µM	3.04 µM	2.25 µM	2.98 µM	–	–
CCCCCCCCCCCCCC(=O)OC1CC(=O)OC1CO (configuration not stated)	74.4 µM	> 100 µM	–	> 100 µM	45.5 µM	> 100 µM	–	–	–	–	–	–	–	–	–	–	–	–	–	–
Cc1ccc(-c2c3c([nH]c(=O)c2C#N)-c2cc(F)ccc2OC3)cc1	7.25 µM	> 100 µM	59.2 µM	> 100 µM	76.6 µM	> 100 µM	> 100 µM	–	–	1.19 µM	95.5 µM	–	–	34.8 µM	> 100 µM	> 100 µM	23.9 µM	> 100 µM	19 µM	> 100 µM
Cc1cc2c(cc1C)[n+](=O)c(C(=O)CC(=O)C(=O)Nc1c(C(C)C)cccc1C(C)C)c(C)n2[O-]	> 100 µM	> 100 µM	> 100 µM	> 100 µM	> 100 µM	> 100 µM	> 100 µM	–	–	–	–	–	–	–	–	–	–	–	–	–
Cc1ccc(S(=O)(=O)C(CC(=O)N2CCCC2)C(=O)c2ccccc2)cc1 (configuration not stated)	62.5 µM	–	> 100 µM	> 100 µM	> 100 µM	> 100 µM	> 100 µM	–	–	–	–	–	–	–	–	–	–	–	–	–
Clc1ccc(C2N3CCCCC3[C@@H]3c4[nH]c5ccccc5c4CCN23)cc1 (some centres not stated)	> 100 µM	> 100 µM	–	> 100 µM	> 100 µM	> 100 µM	–	–	–	–	–	–	–	–	–	–	–	–	–	–
COc1cccc(-c2cc(=O)c3cc(N(C)C)ccc3[nH]2)c1	–	–	0.0445 µM and 0.0205 µM	> 100 µM	–	> 100 µM	0.188 µM and 0.0233 µM	–	–	0.0135 µM and 0.00524 µM	–	0.0221 µM and 0.00461 µM	–	0.0107 µM	–	–	0.0169 µM and 0.0296 µM and 0.00485 µM	–	0.0184 µM and 0.00392 µM	0.00495 µM and 0.00224 µM
COc1cc2c3c(n(C)c(=O)c2cc1OC)-c1cc2c(cc1/C3=C\CCCN1C(=O)c3ccccc3C1=O)OCO2	–	> 40 µM	–	> 40 µM	> 40 µM	–	–	8.26 µM	> 40 µM	–	5.2 µM	> 40 µM	> 40 µM	–	–	> 40 µM	3.61 µM	–	–	–
CC(=O)Nc1ccccc1Sc1ccccc1	> 100 µM	> 100 µM	> 100 µM	> 100 µM	> 100 µM	> 100 µM	–	–	–	–	–	–	–	–	–	–	–	–	–	–
N#CC1(Cc2ccc(N)cc2)c2ccccc2C=CN1C(=O)c1ccccc1 (configuration not stated)	> 100 µM	> 100 µM	> 100 µM	–	> 100 µM	> 100 µM	94.3 µM	–	–	–	–	–	–	–	–	–	–	–	–	–
CC(C)CC(=O)[O-].CC(C)CC(=O)[O-].N.N.N.N.[Co+3].[O-][Cl+3]([O-])([O-])[O-]	> 100 µM	> 100 µM	> 100 µM	> 100 µM	> 100 µM	> 100 µM	–	–	–	> 100 µM	> 100 µM	–	–	–	–	> 100 µM	> 100 µM	> 100 µM	51 µM and 90 µM	–
COC(=O)C1=C(C(=O)OC)C2C=CC1C1C(Cl)=C(Cl)C21 (configuration not stated)	> 100 µM	> 100 µM	> 100 µM	> 100 µM	> 100 µM	> 100 µM	–	–	–	–	–	–	–	–	–	–	–	–	–	–
N#C/C(=C/c1ccsc1)C(=O)c1ccccc1	> 100 µM	> 100 µM	> 100 µM	> 100 µM	> 100 µM	> 100 µM	> 100 µM	–	–	–	–	–	–	–	–	–	–	–	–	–
O=[N+]([O-])/C=C\c1ccc(Cl)c(Cl)c1	4.75 µM	17.5 µM	–	24 µM	3.73 µM	62.5 µM	–	4.15 µM	14.9 µM	–	4.01 µM	2.42 µM	7.6 µM	5.73 µM	23.2 µM	11.5 µM	1.83 µM	4.31 µM	–	–
CCCCNC1=C(C(=O)OCC)C(=O)CO1	> 100 µM	> 100 µM	> 100 µM	> 100 µM	> 100 µM	> 100 µM	–	–	–	–	–	–	–	–	–	–	–	–	–	–
O=C1C=CC(=Nc2ccc3c(c2)C(Br)c2ccccc2-3)O1 (configuration not stated)	> 100 µM	> 100 µM	81.7 µM	–	> 100 µM	49.9 µM	> 100 µM	–	–	–	–	–	–	–	–	–	–	–	–	–

Structure (SMILES)	TGI [1]	TGI [2]	TGI [3]	TGI [4]	TGI [5]	TGI [6]	TGI [7]	GI50 [8]	TGI [8]	GI50 [1]	GI50 [2]	GI50 [9]	TGI [9]	GI50 [10]	TGI [10]	GI50 [4]	GI50 [5]	GI50 [6]	GI50 [3]	GI50 [7]
CC1=C(C(=O)Nc2ccc([N+](=O)[O-])cc2)C(c2ccc(N(C)C)cc2)C(C(=O)Nc2ccc([N+](=O)[O-])cc2)=C(C)N1	60.7 µM	90.4 µM	25.6 µM	89.5 µM	74.6 µM	–	–	–	–	–	–	–	–	–	–	–	–	–	–	–
CCCCN(CCCC)C(=O)C(=O)C(C#N)c1ccc(C)cc1 (configuration not stated)	> 100 µM	> 100 µM	> 100 µM	> 100 µM	> 100 µM	> 100 µM	–	–	–	–	–	–	–	–	–	–	–	–	–	–
CCOC(=O)/C=C(/C(=O)OCC)n1cc(Cl)c(=O)n(CC(=O)OCC)c1=O	1.13 µM and 5.65 µM	10.3 µM and 53.1 µM	2.88 µM	14 µM and > 100 µM	> 100 µM	10.9 µM and 32.7 µM	25 µM	–	10.6 µM and 37.8 µM	2.12 µM	23.4 µM	–	–	20.6 µM	10.7 µM and 36.8 µM	34.2 µM	> 100 µM	–	–	–
COc1cc(C2c3cc4c(cc3C(NCC(O)CO)C3COC(=O)[C@H]23)OCO4)cc(OC)c1OC (some centres not stated)	> 100 µM	> 100 µM	–	–	–	> 100 µM	> 100 µM	–	–	–	–	–	–	–	–	–	–	–	–	–
CN(C(=O)C12C3C4C1C1C2C3C41C(=O)C(C)(C)C)C(C)(C)C (configuration not stated)	> 100 µM	> 100 µM	> 100 µM	> 100 µM	> 100 µM	> 100 µM	–	–	–	–	–	–	–	–	–	–	–	–	–	–
CCNCCNc1cc(-c2ccc(C(=O)OC)cc2)c(C#N)c2nc3ccccc3n12	3.55 µM	> 100 µM	4.52 µM	–	3.12 µM	8.33 µM	0.613 µM	–	–	0.505 µM	4.07 µM	2.42 µM	7.48 µM	–	–	–	1.57 µM	2.68 µM	1.72 µM	0.24 µM
N#CSCC1CC(O)(c2ccccc2)C(c2ccccc2)C(c2ccc(Cl)cc2)O1 (configuration not stated)	–	–	–	2.53 µM	4.22 µM	2.91 µM	4.95 µM	–	–	–	–	3.22 µM	81 µM	1.8 µM	4.79 µM	1.22 µM	1.75 µM	1.41 µM	–	1.9 µM
COC(=O)C(=O)C(C(=O)C=C(C)C)C(=O)C(=O)Nc1cc(C(F)(F)F)ccc1Cl (configuration not stated)	71.2 µM	> 100 µM	> 100 µM	> 100 µM	> 100 µM	> 100 µM	39.9 µM	–	–	–	–	–	–	–	–	–	–	–	–	–
CCOc1ccc2c(c1)[n+]([O-])c(S(=O)(=O)c1ccc(C)cc1)c(N)[n+]2[O-]	> 100 µM	> 100 µM	> 100 µM	> 100 µM	> 100 µM	–	–	–	–	–	–	–	–	–	–	–	–	–	–	–
CCCCCCCCCC[C@@H](O)[C@@H]1CC[C@H]([C@H]2CC[C@@H]([C@@H](O)CCCCCCCCCC[C@H]3CC(CC(C)=O)C(=O)O3)O2)O1 (some centres not stated)	33.4 µM	78 µM	13.2 µM	21.7 µM	–	49.1 µM	–	–	–	–	–	–	–	–	–	–	–	–	–	–
COC(=O)C[C@H]1CCC2(OCCO2)[C@]1(C)C(=O)OC	> 100 µM	> 100 µM	> 100 µM	> 100 µM	> 100 µM	> 100 µM	–	–	–	–	–	–	–	–	–	–	–	–	–	–
C=C(CN1CCc2ccccc2C1)c1ccc(C(=O)Nc2cnccn2)cc1	> 100 µM	> 100 µM	42.5 µM	> 100 µM	73 µM	> 100 µM	–	–	–	5.42 µM	52.8 µM	57.1 µM	> 100 µM	27.3 µM	> 100 µM	99.4 µM	19.1 µM	50.4 µM	18.2 µM	–
O=C(CI)NC1Oc2ccccc2-c2oc(=O)c(-c3ccccc3)cc21 (configuration not stated)	> 100 µM	–	–	–	3.37 µM	–	> 100 µM	1.7 µM	3.24 µM	0.305 µM	–	2.4 µM	7.28 µM	–	–	–	1.77 µM	–	–	0.357 µM
Cc1ccc(C)c(NC(=O)CC/C(=N\NC(=O)C(=O)NN)C(C)C(=O)c2ccc(O)cc2)c1 (configuration not stated)	> 100 µM	> 100 µM	> 100 µM	> 100 µM	> 100 µM	> 100 µM	> 100 µM	–	–	–	–	–	–	–	–	–	–	–	–	–
O=C(N/N=C/c1ccccc1O)c1cccc([N+](=O)[O-])c1	> 100 µM	82.8 µM	> 100 µM	> 100 µM	68.3 µM	> 100 µM	> 100 µM	–	–	–	–	–	–	–	–	–	–	–	–	–
CC12CC[C@@H](C(C)(C)O)C1[C@@H](O)CC1(C)C2CCC2[C@@]3(C)CC[C@H](O)C(C)(C)C3C(O)C[C@]21C (some centres not stated)	27.3 µM	29 µM	–	32.6 µM	37 µM	29.9 µM	–	–	–	–	–	–	–	–	–	–	–	–	–	–
COc1ccc2cc1Oc1ccc(cc1)CC1c3cc(c(OC)cc3CCN1C)Oc1c3c(cc4c1C(C2)N(C)CC4)OCO3 (configuration not stated)	31.7 µM	29.8 µM	20.3 µM	12.7 µM	21.9 µM	23.7 µM	28.2 µM	–	–	–	–	–	–	–	–	–	–	–	–	–
